Earlier results in US20220280561A1, “COPPER-ATSM FOR TREATING NEURODEGENERATIVE DISORDERS ASSOCITED WITH MITOCHONDRIAL DYSFUNCTION” (RESEARCH INSTITUTE AT NATIONWIDE CHILDREN'S HOSPITAL, priority 2019, published 2022).

System: ALS
Details: ALS patients; cited from earlier work

SMILES: CC1=NN(c2ccccc2)C(=O)C1 [Edaravone]
- patient quality of life: significant impact on patient quality of life

SMILES: Nc1nc2ccc(OC(F)(F)F)cc2s1 [Riluzole]
- lifespan: modestly extending lifespan
